Laboratory results: patent EP0089926A2, “Pharmaceutical preparations of tetracycles containing nitrogen, and compounds of this type” (CIBA-GEIGY AG, priority 1982, dated 1983)

Tested on: Mäuse
Experiment: Step-down platform passive avoidance test, direct measurement of improvement of memory performance
Type: in vivo
Settings: male mice, 1 mg/kg i.p. within 10 seconds after foot shock, time on platform 24 hours later versus solvent controls
Description: Zur unmittelbaren […]: • Die Testvorrichtung besteht aus […] normal beleuchteten Box (50 […]äbe (6 mm Durchmesser) in einem Abstand von jeweils 13 mm angeordnet sind. In […] Gitterrostes ist eine hölzerne Plattform (10 mm Höhe, 67 mm Durchmesser) angebracht, welche von […] hoch, 68 mm […]. Zur Durchführung des Trainings werden Gruppen von jeweils 30 männlichen Mäusen (20 - 25 g) verwendet, indem jeweils ein Tier auf die von […] die […] und die Zeitdauer gemessen wird, welche das Tier zum Hinabsteigen und Berühren des Gitterrostes mit allen 4 Pfoten benö[…] von 10 Sekunden nach Verabreichung des Fussschocks werden die Testsubstanzen in Dosen von 0,1 mg/kg, 1 mg/kg und 10 mg/kg (für jede Dosis werden 30 Mäuse verwendet) je nach Löslichkeit als Lösung in physiologischer NaCl-Lösung oder einer 0,5%-igen Lösung von Methylcellulose in Wasser intraperitoneal verabreicht.

| Structure (SMILES) | Verbesserung der Gedächtnisleistung |
| --- | --- |
| CCC1(CCC(=O)OC)CCN2CCc3c([nH]c4ccccc34)C21 (racemic) [cis-1-Aethyl-2,3,5,6,11,11b-hexahydro-1H-indolizino[8,7-b]indol-1-propionsäuremethylester] | eine Verbesserung der Gedächtnisleistung |
| CCC1(CC(O)C(=O)OC)CCN2CCc3c([nH]c4ccccc34)C21 (racemic) [erythro-cis-a-Hydroxy-1-äthyl-2,3,5,6,11,11b-hexahydro-1H-indolizino[8,7-b]indol-1-propionsäuremethylester] | eine Verbesserung der Gedächtnisleistung |
